Data on six molecules can be found in PubChem BioAssay (NCI).

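Results reflect a 48-hour exposure of cells in 96-well plates to compound at five concentrations. GI50 = concentration required for 50% inhibition of growth. TGI is the concentration that stops growth completely.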

Among the test systems are HCT-116 colon; SW-620 colon; COLO 205 colon; A549 NSCLC; HOP-92 NSCLC; SK-MEL-2 melanoma; NCI-H522 lung; OVCAR-3 ovarian; MOLT-4 leukemia; SF-268 CNS.
What all share (assay): DTP human tumour cell line panel, 48 h

Turning to `CCOC(=O)CCC1(C(=O)OC)CCCC1=O` (stereo not given), the TGI in the assay with HCT-116 colon, with SW-620 colon, in the assay on COLO 205 colon, with A549 NSCLC, in the assay on HOP-92 NSCLC and with SK-MEL-2 melanoma was greater than 100 µM in each case. In addition, the TGI in the assay on NCI-H522 lung, in the assay on OVCAR-3 ovarian, with MOLT-4 leukemia and with SF-268 CNS was greater than 100 µM throughout.

Consider `COc1ccc(C2=CC(c3cc(OC)c(OC)c(OC)c3)n3ncnc3N2)cc1` (stereo not given), for which the GI50 with HCT-116 colon was 0.0401 µM; in the assay on SW-620 colon, 0.0484 µM; with COLO 205 colon, 0.0335 µM; in the assay with A549 NSCLC, 0.0858 µM; in the assay on HOP-92 NSCLC, 11.3 µM; with SK-MEL-2 melanoma, 16.9 µM. Moreover, the GI50 in the assay with NCI-H522 lung is 0.0324 µM; in the assay with OVCAR-3 ovarian, 0.0286 µM; in the assay with MOLT-4 leukemia it was 0.171 µM; in the assay with SF-268 CNS, 0.0833 µM. Moreover, the TGI in the assay with HCT-116 colon was greater than 100 µM; with SW-620 colon it was greater than 100 µM; with COLO 205 colon, 0.16 µM; in the assay with A549 NSCLC, 30.3 µM; in the assay with HOP-92 NSCLC, 37.3 µM; in the assay on SK-MEL-2 melanoma it was 71.1 µM. For the same molecule, the TGI was 0.654 µM with NCI-H522 lung, 0.0764 µM with OVCAR-3 ovarian, greater than 100 µM in the assay on MOLT-4 leukemia and 29.7 µM in the assay on SF-268 CNS.

For `CC[C@]12C=CCN3CC[C@]4(C(=C(C(=O)OC)C1)Nc1cc(O)ccc14)[C@@H]32`, the GI50 in the assay with HCT-116 colon was 16.2 µM; in the assay with SW-620 colon, 16.3 µM; with COLO 205 colon, 21.8 µM; in the assay with A549 NSCLC, 23.3 µM; in the assay with HOP-92 NSCLC, 11.6 µM; with SK-MEL-2 melanoma it was 18.2 µM. The GI50 in the assay on NCI-H522 lung is 15.1 µM; with OVCAR-3 ovarian, 17.7 µM; in the assay on MOLT-4 leukemia, 21.6 µM; with SF-268 CNS, 20.7 µM. Also, the TGI in the assay on HCT-116 colon was found to be 34.3 µM; with SW-620 colon it was 36.6 µM; with COLO 205 colon, 47.3 µM; with A549 NSCLC it was 70.8 µM; with HOP-92 NSCLC, 26.1 µM; with SK-MEL-2 melanoma, 48.6 µM. Further, the TGI in the assay with NCI-H522 lung stood at 55.2 µM; in the assay on OVCAR-3 ovarian, 33.9 µM; with MOLT-4 leukemia, 74.2 µM; in the assay on SF-268 CNS it was 53.2 µM.

`CN1CCCC1c1cccnc1.O=C(O)c1ccccc1O.O=C([O-])c1ccccc1[OH2+].O=C([O-])c1ccccc1[OH2+].O=C([O-])c1ccccc1[OH2+].[Mn+2]` (stereo not given): the GI50 was greater than 100 µM with HCT-116 colon; 42.4 µM in the assay on SW-620 colon; greater than 100 µM in the assay on COLO 205 colon; greater than 100 µM with A549 NSCLC; greater than 100 µM in the assay on HOP-92 NSCLC; greater than 100 µM in the assay with SK-MEL-2 melanoma. Further, the GI50 with NCI-H522 lung was 12.1 µM; in the assay with OVCAR-3 ovarian it was 11.4 µM; in the assay with MOLT-4 leukemia, 19.9 µM; with SF-268 CNS it was 22.3 µM. The TGI with HCT-116 colon, in the assay on SW-620 colon, with COLO 205 colon, in the assay on A549 NSCLC, in the assay with HOP-92 NSCLC and in the assay with SK-MEL-2 melanoma was greater than 100 µM in each case. Besides, the TGI with NCI-H522 lung was 27.7 µM; in the assay with OVCAR-3 ovarian it was 39.3 µM; with MOLT-4 leukemia, greater than 100 µM; in the assay on SF-268 CNS, 73.4 µM.

As to `O=C(N[C@@H]1CCCc2ccccc21)[C@H](CCC(=O)N1CCN(C2CCCCC2)CC1)N1C(=O)[C@@H](N2C(=O)OC[C@@H]2c2ccccc2)[C@H]1/C=C/c1ccccc1`, the GI50 with HCT-116 colon is 1.8 µM; with SW-620 colon it was 3.06 µM; in the assay with COLO 205 colon it was 1.59 µM; in the assay on A549 NSCLC, 2.6 µM; with HOP-92 NSCLC, 1.58 µM; with SK-MEL-2 melanoma it was 1.92 µM. Besides, the GI50 is 1.76 µM with NCI-H522 lung, 1.72 µM in the assay with OVCAR-3 ovarian, 2.27 µM with MOLT-4 leukemia and 1.3 µM in the assay with SF-268 CNS. Moreover, the TGI with HCT-116 colon was found to be 4.68 µM; in the assay with SW-620 colon, 10.8 µM; in the assay on COLO 205 colon it was 3.52 µM; in the assay with A549 NSCLC, 14.8 µM; in the assay on HOP-92 NSCLC, 5.18 µM; with SK-MEL-2 melanoma it was 4.29 µM. Also, the TGI in the assay with NCI-H522 lung was 4.11 µM; in the assay with OVCAR-3 ovarian it was 3.81 µM; in the assay with MOLT-4 leukemia, greater than 100 µM; in the assay with SF-268 CNS, 3.04 µM.

Regarding `CC1(C)N=C(N)N=C(N)N1c1ccc(OCC(=O)Nc2cccc(S(=O)(=O)F)c2)c(Cl)c1`, the TGI with HCT-116 colon, with SW-620 colon, with COLO 205 colon, in the assay on A549 NSCLC, in the assay on HOP-92 NSCLC and in the assay on SK-MEL-2 melanoma was greater than 100 µM throughout. The TGI was greater than 100 µM in the assay on NCI-H522 lung, greater than 76.8 µM in the assay with OVCAR-3 ovarian, greater than 100 µM in the assay with MOLT-4 leukemia and greater than 41.3 µM in the assay with SF-268 CNS.
